Paper PMC7753922, “Effect of the anti-parasitic compounds pyrvinium pamoate and artemisinin in enzymatic and culture assays: Data on the search for new anti-echinococcal drugs” (Data in Brief, 2020)
Where two headings read alike, the source gives them in different places.

Columns and labels:
Type in all cases: biochemical
[1] = target: T1, succinate-cytochrome c reductase (mitochondrial complexes II and III) (Echinococcus multilocularis, UniProt Q9TE80); experiment: spectrophotometric succinate-cytochrome c reductase assay, mitochondrial fraction; settings: coupled complex II and III activity, 30 mM potassium phosphate, 1 mM MgCl2, pH 7.5, 25 °C
T1 construct: gene Cytb; coupled activity of native complexes II and III in freeze-thawed enriched mitochondrial fraction of protoscoleces; not purified; with Succinate dehydrogenase [ubiquinone] flavoprotein subunit, mitochondrial; Succinate dehydrogenase [ubiquinone] iron-sulfur subunit, mitochondrial; Succinate dehydrogenase [ubiquinone] cytochrome b large subunit, mitochondrial; Succinate dehydrogenase [ubiquinone] cytochrome b small subunit, mitochondrial
From the text: spectrophotometric succinate-cytochrome c reductase assay, mitochondrial fraction on succinate-cytochrome c reductase (mitochondrial complexes II and III)

[2] = target: T2, mitochondrial complex II (succinate-quinone reductase, SQR) (Echinococcus multilocularis, UniProt A0A1Z4EAV8+A0A1Z4EAW8+A0A1Z4EAX0+A0A1Z4EAX1); experiment: spectrophotometric succinate-quinone reductase assay, mitochondrial fraction; settings: 30 mM potassium phosphate, 1 mM MgCl2, pH 7.5, 25 °C
T2 construct: gene SDHB1; native complex II in freeze-thawed enriched mitochondrial fraction of protoscoleces; not purified
From the text: spectrophotometric succinate-quinone reductase assay, mitochondrial fraction on mitochondrial complex II (succinate-quinone reductase, SQR)

[3] = target: T3, mitochondrial complex I (NADH-ubiquinone reductase; NADH-decyl rhodoquinone reductase) (Echinococcus multilocularis, UniProt Q9TE76); experiment: spectrophotometric NADH-quinone reductase assay, mitochondrial fraction; settings: quinone acceptor decyl rhodoquinone (methods; table heads it NADH-ubiquinone reductase), 30 mM potassium phosphate, 1 mM MgCl2, pH 7.5, 25 °C
T3 construct: gene ND1; native multi-subunit complex I in freeze-thawed enriched mitochondrial fraction of protoscoleces; not purified
From the text: spectrophotometric NADH-quinone reductase assay, mitochondrial fraction on mitochondrial complex I (NADH-ubiquinone reductase; NADH-decyl rhodoquinone reductase)

[4] = read-out: NADH-ubiquinone reductase / (Complex I)
[5] = read-out: Succinate-quinone reductase: SQR / (Complex II)

T1 sequence (Q9TE80 1-355): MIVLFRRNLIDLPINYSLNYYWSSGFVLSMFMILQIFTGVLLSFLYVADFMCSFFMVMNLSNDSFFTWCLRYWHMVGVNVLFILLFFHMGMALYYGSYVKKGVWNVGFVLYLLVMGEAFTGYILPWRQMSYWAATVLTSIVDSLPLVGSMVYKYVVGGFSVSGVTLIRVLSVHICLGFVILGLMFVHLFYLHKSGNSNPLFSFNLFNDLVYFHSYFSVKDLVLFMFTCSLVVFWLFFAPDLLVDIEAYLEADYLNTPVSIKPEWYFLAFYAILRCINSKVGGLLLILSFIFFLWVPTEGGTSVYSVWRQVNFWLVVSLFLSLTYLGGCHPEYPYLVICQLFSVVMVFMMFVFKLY
T1 sequence (Q9GP40 whole entry partner): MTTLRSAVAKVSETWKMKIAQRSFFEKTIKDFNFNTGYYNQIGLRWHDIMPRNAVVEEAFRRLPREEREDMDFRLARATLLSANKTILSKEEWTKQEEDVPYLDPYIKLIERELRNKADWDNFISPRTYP
T1 sequence (A0A1Z4EAV8 26-648 partner): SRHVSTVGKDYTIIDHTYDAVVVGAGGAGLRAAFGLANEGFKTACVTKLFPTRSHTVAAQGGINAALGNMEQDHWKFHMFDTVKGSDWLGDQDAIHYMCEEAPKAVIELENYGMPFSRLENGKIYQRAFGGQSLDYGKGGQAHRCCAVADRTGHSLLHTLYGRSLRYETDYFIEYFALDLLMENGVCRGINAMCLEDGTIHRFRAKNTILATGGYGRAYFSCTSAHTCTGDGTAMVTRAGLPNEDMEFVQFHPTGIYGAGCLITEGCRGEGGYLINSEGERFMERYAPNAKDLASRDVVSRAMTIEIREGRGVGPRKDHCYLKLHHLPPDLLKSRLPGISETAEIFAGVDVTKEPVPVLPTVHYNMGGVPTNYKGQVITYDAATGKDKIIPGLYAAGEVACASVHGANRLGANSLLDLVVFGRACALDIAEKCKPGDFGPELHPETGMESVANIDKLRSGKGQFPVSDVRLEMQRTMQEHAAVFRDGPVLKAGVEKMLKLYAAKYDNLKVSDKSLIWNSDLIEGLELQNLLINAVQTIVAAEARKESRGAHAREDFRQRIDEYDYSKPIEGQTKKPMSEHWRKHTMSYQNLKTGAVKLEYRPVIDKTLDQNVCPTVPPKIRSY
T1 sequence (A0A1Z4EAX0 21-272 partner): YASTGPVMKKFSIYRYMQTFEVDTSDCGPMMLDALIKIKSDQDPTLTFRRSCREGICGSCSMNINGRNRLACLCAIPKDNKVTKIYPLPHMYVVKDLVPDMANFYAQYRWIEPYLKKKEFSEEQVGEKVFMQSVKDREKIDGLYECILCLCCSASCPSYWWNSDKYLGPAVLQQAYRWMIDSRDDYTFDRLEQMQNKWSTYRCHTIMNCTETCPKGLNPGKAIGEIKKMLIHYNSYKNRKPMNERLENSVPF
T1 sequence (A0A1Z4EAX1 53-194 partner): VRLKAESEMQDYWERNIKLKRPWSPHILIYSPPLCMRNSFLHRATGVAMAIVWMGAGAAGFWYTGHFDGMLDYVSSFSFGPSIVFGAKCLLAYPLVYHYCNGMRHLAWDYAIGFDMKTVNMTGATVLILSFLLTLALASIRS
T1 sequence (A0A1Z4EAW8 47-153 partner): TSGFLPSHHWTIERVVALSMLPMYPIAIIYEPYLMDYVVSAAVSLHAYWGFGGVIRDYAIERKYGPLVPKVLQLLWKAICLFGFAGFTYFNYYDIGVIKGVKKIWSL
T3 sequence (Q9TE76 1-297): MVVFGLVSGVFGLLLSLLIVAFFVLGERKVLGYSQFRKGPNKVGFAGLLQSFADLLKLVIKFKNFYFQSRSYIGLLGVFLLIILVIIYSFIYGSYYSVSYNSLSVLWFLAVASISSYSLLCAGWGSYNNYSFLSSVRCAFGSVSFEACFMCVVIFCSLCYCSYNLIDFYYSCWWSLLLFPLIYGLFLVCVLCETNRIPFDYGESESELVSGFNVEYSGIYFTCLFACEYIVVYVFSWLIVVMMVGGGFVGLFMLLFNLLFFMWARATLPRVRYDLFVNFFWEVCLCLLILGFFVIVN
T3 sequence (A0A068Y9L9 30-218 partner): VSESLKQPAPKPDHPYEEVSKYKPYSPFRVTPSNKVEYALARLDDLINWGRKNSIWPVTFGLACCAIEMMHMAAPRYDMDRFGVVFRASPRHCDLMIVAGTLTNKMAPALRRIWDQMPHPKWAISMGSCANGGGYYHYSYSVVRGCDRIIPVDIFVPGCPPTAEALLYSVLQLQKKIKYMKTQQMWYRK
T3 sequence (A0A068YF50 31-207 partner): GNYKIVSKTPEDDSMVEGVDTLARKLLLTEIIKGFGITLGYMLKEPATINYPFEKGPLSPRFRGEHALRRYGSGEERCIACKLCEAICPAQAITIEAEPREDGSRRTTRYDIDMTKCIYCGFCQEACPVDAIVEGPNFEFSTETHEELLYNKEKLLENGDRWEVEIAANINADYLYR
T2 sequence (A0A1Z4EAX0 21-272): as the sequence (A0A1Z4EAX0 21-272 partner) above
T2 sequence (A0A1Z4EAX1 53-194): as the sequence (A0A1Z4EAX1 53-194 partner) above
T2 sequence (A0A1Z4EAW8 47-153): as the sequence (A0A1Z4EAW8 47-153 partner) above
T2 sequence (A0A1Z4EAV8 26-648): as the sequence (A0A1Z4EAV8 26-648 partner) above

IC50 [1, 5]	IC50 [2, 5]	Compound	IC50 [1, 4]	IC50 [2, 4]	IC50 [3]
–	–	C[C@@H]1CC[C@H]2[C@@H](C)C(=O)O[C@@H]3O[C@@]4(C)CC[C@@H]1[C@]32OO4 [artemisinin]	> 40 µM	> 40 µM	> 40 µM
> 30 µM	> 30 µM	Cc1cc(/C=C/c2ccc3cc(N(C)C)ccc3[n+]2C)c(C)n1-c1ccccc1 [pyrvinium pamoate]	–	–	11 ± 0.3 µM
